Key:
HPK1 = HPK1 (Homo sapiens, UniProt Q92918); assay: HPK1 kinase activity inhibition test (ADP-Glo, luminescence); assay type: biochemical; details: 2 μM ATP, 5 nM HPK1, read-out: IC50, inhibitory effects on HPK1 kinase activity
Method: The kinase activity of HPK1 is manifested as activity of autophosphorylation and phosphorylation of downstream substrates. In the process of autophosphorylation, additional substrates are not required, and ATP is consumed to generate ADP. The amount of the product is measured by ADP-Glo reagent and luminescence method to reflect kinase activity.
(§1) Tested compounds: compounds prepared in the Examples of this invention.
Preparation of compound stock solution: dissolve the test compound in 100% DMSO to make a 10 mM stock solution;
Preparation of 4×Kinase Reaction Buffer:
Preparation of 2×HPK1 Kinase Solution:
Preparation of 4×ATP Mixture:
Dilute the stock solution of the test compound by 5 times with 100% DMSO, make a 4-fold equal dilution in a 96-well dilution plate, add 1 μL of the compound to 49 μL of kinase reaction buffer, and shake on a microplate shaker for 20 minutes. Transfer 2 μL of 2×HPK1 kinase solution to 384 reaction plate, add 1 μL of the test compound to the 384 reaction plate (Greiner, Cat #784075), centrifuge for 1 minute (1000 rpm/min), incubate at 25° C. for 10 minutes. Transfer 1 μL of the 4×ATP mixture to a 384 reaction plate, centrifuge for 1 minute (1000 rpm/min), and incubate at 25° C. for 60 minutes. In the reaction system, the final concentration of DMSO is 0.5%. Transfer 4 μL of ADP-Glo to a 384 reaction plate, centrifuge for 1 minute (1000 rpm/min), and incubate at 25° C. for 40 minutes. Transfer 8 μL detection solution to a 384 reaction plate, centrifuge for 1 minute (1000 rpm/min), and incubate at 25° C. for 40 minutes. The […] is read using a Biotek multi-function plate reader, and the IC50 (half inhibitory concentration) of the compound is obtained using a four-coefficient nonlinear fitting formula.

Human Jurkat-E6-1 cells = assay: Detection of IL-2 production by Jurkat cells using ELISA; assay type: cell-based; details: anti-CD3/anti-CD28 stimulation 24 hours, read-out: Percentage of the amount of IL-2 secreted by compound treated vs DMSO-treated cells; for activity at 1 µM: tested compound 1.0 μM; for activity at 0.33 µM: tested compound 0.33 μM
Method: as §1
Human Jurkat-E6-1 cells were incubated with various concentrations of tested compounds for 30 minutes in a humidified incubator at 37° C. and 5% CO2. Cells were transferred to cell culture plates pre-coated with anti-human CD3 antibody, then soluble anti-human CD28 antibody was added, and cells were stimulated for 24 hours at 37° C. and 5% CO2 in a humidified incubator. The cell culture medium was collected after centrifugation, and was then transferred to a 96-well transparent microtiter plate (Thermo) pre-coated with anti-human IL-2 antibody, incubated at room temperature for 2 hours with gently shaking, washed with washing buffer for 4 times, and then followed the ELISA MAX Deluxe Set Human IL-2 (BioLegend) kit procedures, used a microplate reader (Molecular Device, i3X) to read the GD value at 450 nm. The best standard curve was selected by the microplate reader application software, and the corresponding concentration was calculated according to the GD value of the standard. Results are expressed as a percentage (%) of the amount of IL-2 secreted by compound-treated vs DMSO-treated cells.

FLT3 = target: T1, FLT3 (Homo sapiens, UniProt P36888); assay: FLT3 kinase activity inhibition test (HTRF); assay type: biochemical; details: read-out: IC50, inhibitory effects on FLT3 kinase activity
T1 sequence (P36888 27-993): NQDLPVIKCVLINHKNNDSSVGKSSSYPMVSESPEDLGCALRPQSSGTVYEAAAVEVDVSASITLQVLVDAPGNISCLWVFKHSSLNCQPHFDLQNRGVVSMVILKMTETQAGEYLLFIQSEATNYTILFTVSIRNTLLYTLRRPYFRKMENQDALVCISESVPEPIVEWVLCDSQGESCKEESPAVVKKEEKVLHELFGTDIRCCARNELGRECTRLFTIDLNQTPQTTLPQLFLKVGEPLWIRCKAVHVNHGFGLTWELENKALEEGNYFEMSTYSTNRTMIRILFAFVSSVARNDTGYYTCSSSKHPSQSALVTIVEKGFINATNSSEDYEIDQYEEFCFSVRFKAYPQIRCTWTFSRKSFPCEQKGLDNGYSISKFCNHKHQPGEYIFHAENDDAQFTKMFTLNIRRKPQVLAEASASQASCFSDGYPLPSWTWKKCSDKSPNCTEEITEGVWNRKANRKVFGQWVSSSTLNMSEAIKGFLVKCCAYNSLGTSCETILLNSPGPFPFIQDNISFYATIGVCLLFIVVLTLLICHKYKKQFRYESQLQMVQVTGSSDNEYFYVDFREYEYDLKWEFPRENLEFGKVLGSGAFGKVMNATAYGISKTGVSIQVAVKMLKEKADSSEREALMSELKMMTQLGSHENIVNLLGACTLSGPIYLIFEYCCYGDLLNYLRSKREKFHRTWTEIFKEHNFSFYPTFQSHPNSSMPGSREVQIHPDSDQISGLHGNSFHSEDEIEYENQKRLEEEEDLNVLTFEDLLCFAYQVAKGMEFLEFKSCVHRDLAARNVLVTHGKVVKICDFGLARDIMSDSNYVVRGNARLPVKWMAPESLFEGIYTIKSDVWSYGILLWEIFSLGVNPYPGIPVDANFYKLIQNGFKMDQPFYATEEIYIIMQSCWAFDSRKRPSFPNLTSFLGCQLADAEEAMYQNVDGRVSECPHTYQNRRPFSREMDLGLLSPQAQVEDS
Method: as §1
(§2) Prepare compound stock solution: dissolve the test compound in 100% DMSO to make a 10 mM stock solution. Dilute the stock solution of the test compound by 5 times with 100% DMSO, make a 4-fold equal dilution in a 96-well dilution plate, add 1 μL of the compound to 39 μL of kinase reaction buffer (1×kinase buffer, 5 mM MgCl2, 1 mM DTT), and shake on a microplate shaker for 20 minutes. 4×Positive control (4 μL of positive compound solution of the starting concentration, add 196 μL of kinase buffer) and 4×negative control (4 μL of 100% DMSO, add 196 μL of kinase buffer).
(§3) (1) Use 1×kinase reaction buffer to prepare 2.5×FLT3 kinase solution (160 μM), transfer 2 μL of the kinase solution to the 384 reaction plate, and add 1 μL of the test compound solution of gradient concentration to the 384 reaction plate (Greiner, Cat #784075), centrifuge for 1 minute (1000 rpm), and incubate at 25° C. for 10 minutes.
(§4) (2) Use 1×kinase reaction buffer to prepare 2.5×TK-substrate-biotin (2.5 μM) and 2.5×ATP (2.5 μM), mix well, and add 2 μL of the TK-substrate-biotin/ATP solution to the 384 reaction plate, centrifuge for 30 seconds (1000 rpm), and incubate at 25° C. for 40 minutes.
(§5) (3) Use HTRF detection buffer to prepare 2×Sa-XL 665 (125 nM) and 1×TK-antibody-Cryptate. Add 5 μL of a mixture of Sa-XL 665 and TK-antibody-Cryptate solutions to each well, centrifuge for 30 seconds (1000 rpm), and react at room temperature for 1 hour.
(§6) (4) The fluorescence signal is read using a Biotek multi-function plate reader, and the IC50 (half inhibitory concentration) of the compound is obtained using a four-coefficient nonlinear fitting formula.

KDR = KDR (Homo sapiens, UniProt P35968); assay: KDR kinase activity inhibition test (HTRF); assay type: biochemical; details: read-out: IC50, inhibitory effects on KDR kinase activity
Method: as §1, §2
as §3, with “2.5×KDR” for “2.5×FLT3”, “(250” for “(160”
as §4, §5, §6

Chain of HPK1 (Q92918 whole entry): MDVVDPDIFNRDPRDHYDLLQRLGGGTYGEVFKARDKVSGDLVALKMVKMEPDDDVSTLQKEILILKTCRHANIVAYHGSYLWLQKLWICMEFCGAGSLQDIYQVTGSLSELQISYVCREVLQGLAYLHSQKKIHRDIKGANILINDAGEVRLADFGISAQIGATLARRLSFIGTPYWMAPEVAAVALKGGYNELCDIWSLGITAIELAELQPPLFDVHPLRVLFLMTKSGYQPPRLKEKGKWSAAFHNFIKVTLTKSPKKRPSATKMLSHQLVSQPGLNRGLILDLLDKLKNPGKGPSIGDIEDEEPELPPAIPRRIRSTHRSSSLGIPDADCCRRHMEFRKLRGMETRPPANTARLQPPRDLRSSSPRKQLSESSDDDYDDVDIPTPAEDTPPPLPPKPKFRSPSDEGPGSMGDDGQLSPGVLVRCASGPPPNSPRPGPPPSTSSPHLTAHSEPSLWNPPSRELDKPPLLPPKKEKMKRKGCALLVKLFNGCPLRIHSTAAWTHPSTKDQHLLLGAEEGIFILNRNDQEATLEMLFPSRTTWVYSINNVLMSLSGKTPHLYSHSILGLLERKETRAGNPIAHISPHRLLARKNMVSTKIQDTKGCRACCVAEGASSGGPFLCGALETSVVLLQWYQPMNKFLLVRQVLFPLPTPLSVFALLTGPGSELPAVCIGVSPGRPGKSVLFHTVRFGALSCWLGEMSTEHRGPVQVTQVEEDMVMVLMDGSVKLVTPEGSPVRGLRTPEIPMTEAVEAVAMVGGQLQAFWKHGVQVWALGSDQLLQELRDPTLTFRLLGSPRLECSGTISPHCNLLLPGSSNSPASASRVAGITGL
Chain of KDR (P35968 20-1356): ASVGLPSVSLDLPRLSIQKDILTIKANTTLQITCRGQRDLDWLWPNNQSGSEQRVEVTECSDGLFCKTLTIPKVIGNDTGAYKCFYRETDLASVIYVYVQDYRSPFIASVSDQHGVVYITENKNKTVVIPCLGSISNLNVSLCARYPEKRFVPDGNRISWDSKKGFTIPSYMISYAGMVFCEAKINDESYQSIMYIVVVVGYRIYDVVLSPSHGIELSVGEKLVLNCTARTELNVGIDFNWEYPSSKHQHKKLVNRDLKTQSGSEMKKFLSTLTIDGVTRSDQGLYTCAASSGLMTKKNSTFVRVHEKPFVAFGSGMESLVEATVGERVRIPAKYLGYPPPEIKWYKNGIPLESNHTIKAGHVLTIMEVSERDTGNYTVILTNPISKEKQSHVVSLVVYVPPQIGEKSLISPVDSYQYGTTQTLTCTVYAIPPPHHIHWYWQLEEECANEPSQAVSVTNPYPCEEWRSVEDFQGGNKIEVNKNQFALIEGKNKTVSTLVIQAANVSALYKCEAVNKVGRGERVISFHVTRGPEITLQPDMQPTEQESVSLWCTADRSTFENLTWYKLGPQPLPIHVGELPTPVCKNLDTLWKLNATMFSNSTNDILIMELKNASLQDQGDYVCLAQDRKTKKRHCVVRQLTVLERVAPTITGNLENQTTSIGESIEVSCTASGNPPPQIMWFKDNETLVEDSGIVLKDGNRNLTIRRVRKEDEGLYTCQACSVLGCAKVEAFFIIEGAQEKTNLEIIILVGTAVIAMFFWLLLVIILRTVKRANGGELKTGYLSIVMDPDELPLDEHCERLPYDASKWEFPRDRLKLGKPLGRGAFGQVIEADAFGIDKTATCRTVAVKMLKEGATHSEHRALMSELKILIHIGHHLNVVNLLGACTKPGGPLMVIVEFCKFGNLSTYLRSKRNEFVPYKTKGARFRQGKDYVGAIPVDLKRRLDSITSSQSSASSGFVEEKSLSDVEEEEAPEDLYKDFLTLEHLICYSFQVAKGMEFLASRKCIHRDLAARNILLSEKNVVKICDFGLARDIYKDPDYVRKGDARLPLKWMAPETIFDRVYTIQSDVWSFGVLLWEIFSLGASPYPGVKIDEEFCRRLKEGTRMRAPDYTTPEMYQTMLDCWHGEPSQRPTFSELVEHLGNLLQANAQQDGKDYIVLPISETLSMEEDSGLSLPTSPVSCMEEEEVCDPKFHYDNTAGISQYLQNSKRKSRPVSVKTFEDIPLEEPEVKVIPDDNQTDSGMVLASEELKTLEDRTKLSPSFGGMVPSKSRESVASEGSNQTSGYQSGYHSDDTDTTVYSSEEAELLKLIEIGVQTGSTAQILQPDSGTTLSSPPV

Compound `Fc1cccc2c1-c1cc3c(n[nH]c3cn1)-c1ccc(N3CCNCC3)c(c1)OCCCOC2` [Compound 10, 17-fluoro-5-(piperazin-1-yl)-7,11-dioxa-20,23,24-triazapentacyclo[17.5.2.1^2,6.0^13,18.0^22,25]heptacosa-1(24),2(27),3,5,13,15,17,19,21,25-decaene] has an IC50 (HPK1) of at most 5 nM, an activity at 1 µM (Human Jurkat-E6-1 cells) of 298% and an IC50 (FLT3) of at most 5 nM. It also gave an IC50 (KDR) of 5 to 50 nM.
`OCCN1CCN(c2ccc3cc2OCCCOCc2cccc(F)c2-c2cc4c-3n[nH]c4cn2)CC1` [Compound 12, 17-fluoro-5-(4-(2-hydroxyethyl)piperazin-1-yl)-7,11-dioxa-20,23,24-triazapentacyclo[17.5.2.1^2,6.0^13,18.0^22,25]heptacosa-1(24),2(27),3,5,13,15,17,19,21,25-decaene] showed an IC50 (HPK1) of at most 5 nM, an IC50 (FLT3) of at most 5 nM and an IC50 (KDR) of 5 to 50 nM.
`Fc1cccc2c1-c1cc3c(n[nH]c3cn1)-c1ccc(N3CCN4CCOC[C@H]4C3)c(c1)OCCCO2` [Compound 102, 5-[(9aR)-octahydropyrazino[2,1-c][1,4]oxazin-8-yl]-16-fluoro-7,11-dioxa-19,22,23-triazapentacyclo[16.5.2.1^2,6.0^12,17.0^21,24]hexacosa-1(23),2,4,6(26),12(17),13,15,18,20,24-decaene] showed an IC50 (HPK1) of at most 5 nM, an activity at 1 µM (Human Jurkat-E6-1 cells) of 702% and an IC50 (FLT3) of at most 5 nM. The IC50 (KDR) was at most 5 nM.
With `CN1C[C@H]2CN(c3ccc4cc3OCCCOCc3cccc(F)c3-c3cc5c-4n[nH]c5cn3)CCN2CC1=O` [Compound 127, (9aR)-8-{17-fluoro-7,11-dioxa-20,23,24-triazapentacyclo[17.5.2.1^2,6.0^13,18.0^22,25]heptacosa-1(24),2,4,6(27),13(18),14,16,19,21,25-decaen-5-yl}-2-methyl-octahydro-1H-[1,4]diazino[1,2-a]pyrazin-3-one] the IC50 (HPK1) was at most 5 nM and the activity at 0.33 µM (Human Jurkat-E6-1 cells) was 475%.
Work on `CN1C[C@@H]2CN(c3ccc4cc3OCCCOCc3cccc(F)c3-c3cc5c-4n[nH]c5cn3)CCN2CC1=O` [Compound 128, (9aS)-8-{17-fluoro-7,11-dioxa-20,23,24-triazapentacyclo[17.5.2.1^2,6.0^13,18.0^22,25]heptacosa-1(24),2,4,6(27),13(18),14,16,19,21,25-decaen-5-yl}-2-methyl-octahydro-1H-[1,4]diazino[1,2-a]pyrazin-3-one] yielded an IC50 (HPK1) of at most 5 nM and an activity at 0.33 µM (Human Jurkat-E6-1 cells) of 452%.
For `OCCN1C2CCC1CN(c1ccc3cc1OCCCOc1cccc(F)c1-c1cc4c-3n[nH]c4cn1)C2` [Compound 145, 2-(3-{16-fluoro-7,11-dioxa-19,22,23-triazapentacyclo[16.5.2.1^2,6.0^12,17.0^21,24]hexacosa-1(23),2,4,6(26),12(17),13,15,18,20,24-decaen-5-yl}-3,8-diazabicyclo[3.2.1]octan-8-yl)ethan-1-ol], the IC50 (HPK1) was at most 5 nM and the activity at 1 µM (Human Jurkat-E6-1 cells) was 512%.
`Fc1cccc2c1-c1cc3c(n[nH]c3cn1)-c1ccc(N3CC4CC(C3)N4C3COC3)c(c1)OCCCO2` [Compound 146, 16-fluoro-5-[6-(oxetan-3-yl)-3,6-diazabicyclo[3.1.1]heptan-3-yl]-7,11-dioxa-19,22,23-triazapentacyclo[16.5.2.1^2,6.0^12,17.0^21,24]hexacosa-1(23),2,4,6(26),12(17),13,15,18,20,24-decaene] showed an IC50 (HPK1) of at most 5 nM and an activity at 1 µM (Human Jurkat-E6-1 cells) of 476%.
For `Fc1cccc2c1-c1cc3c(n[nH]c3cn1)-c1ccc(N3CC4CC(C3)N4CC3CCOCC3)c(c1)OCCCO2` [Compound 147, 16-fluoro-5-{6-[(oxan-4-yl)methyl]-3,6-diazabicyclo[3.1.1]heptan-3-yl}-7,11-dioxa-19,22,23-triazapentacyclo[16.5.2.1^2,6.0^12,17.0^21,24]hexacosa-1(23),2,4,6(26),12(17),13,15,18,20,24-decaene], the IC50 (HPK1) was at most 5 nM and the activity at 0.33 µM (Human Jurkat-E6-1 cells) was 429%.
With `CN1C[C@H]2C[C@@H]1CN2c1ccc2cc1OCCCOCc1cccc(F)c1-c1cc3c-2n[nH]c3cn1` [Compound 152, 17-fluoro-5-[(1R,4R)-5-methyl-2,5-diazabicyclo[2.2.1]heptan-2-yl]-7,11-dioxa-20,23,24-triazapentacyclo[17.5.2.1^2,6.0^13,18.0^22,25]heptacosa-1(24),2,4,6(27),13(18),14,16,19,21,25-decaene] the IC50 (HPK1) was at most 5 nM and the activity at 0.33 µM (Human Jurkat-E6-1 cells) was 432%.
For `Fc1cccc2c1-c1cc3c(n[nH]c3cn1)-c1ccc(N3C[C@@H]4C[C@H]3CN4C3COC3)c(c1)OCCCOC2` [Compound 153, 17-fluoro-5-[(1S,4S)-5-(oxetan-3-yl)-2,5-diazabicyclo[2.2.1]heptan-2-yl]-7,11-dioxa-20,23,24-triazapentacyclo[17.5.2.1^2,6.0^13,18.0^22,25]heptacosa-1(24),2,4,6(27),13(18),14,16,19,21,25-decaene], the IC50 (HPK1) was at most 5 nM and the activity at 0.33 µM (Human Jurkat-E6-1 cells) was 369%.

— US20240383911A1, “AZAINDAZOLE MACROCYCLE COMPOUNDS AND USES THEREOF” (BROADENBIO CO., LTD, priority 2021, published 2024)
